Values joined by “and” are separate entries in the source; they are usually repeats but may differ in a detail not shown here. Equal values may be shown once. Read-outs that look alike come from different tables or passages of the source.
Experiments:
[1] = biological target: T1, EP4R (Homo sapiens, UniProt P35408); assay: PRESTO-Tango β-arrestin2 recruitment assay; assay type: cell-based
T1 construct: Tango fusion cassette (only 'tango' is printed); expressed in transfected cells; host or cells: HTLA cells (tTA-dependent luciferase reporter, β-arrestin2-TEV fusion)

[2] = biological target: EP3R (Homo sapiens, UniProt P43115); assay: Radioligand (3H-PGE2) displacement assay at EP3R; assay type: binding
[3] = in vivo; assay type: in vivo, mice; conditions: mice; for concentration at 5 min / concentration at 15 min / concentration at 30 min / concentration at 60 min / concentration at 120 min / concentration at 240 min / concentration at 360 min / concentration at 480 min / concentration at 1440 min: 10 mg/kg; for concentration at 5 min / concentration at 15 min / concentration at 30 min / concentration at 60 min / concentration at 120 min / concentration at 240 min / concentration at 360 min / concentration at 480 min / concentration at 1440 min / CSF concentration, Final: IP 10 mg/kg; for CSF concentration, Final: listed as 7827_0016, 10 mg/kg
[4] = male, CD-1, mouse, CSF, ip, CSF, mean, read-out: CSF concentrations of cmpd 7827_0016 in mice following IP (10 mg/kg) administration, C
[5] = male, CD-1, mouse, brain, ip, brain, individual animals, read-out: Brain concentration, Final
[6] = male, CD-1, mouse, brain, ip, brain, mean, read-out: Brain concentrations of cmpd 7827_0016 in mice following IP (10 mg/kg) administration, C
[7] = male, CD-1, mouse, plasma, ip, plasma, individual animals, read-out: Plasma concentration, Final
[8] = male, CD-1, mouse, plasma, ip, plasma, mean, read-out: Plasma concentrations of cmpd 7827_0016 in mice following IP (10 mg/kg) administration, C

T1 sequence (P35408 whole entry, the tested form may be a part): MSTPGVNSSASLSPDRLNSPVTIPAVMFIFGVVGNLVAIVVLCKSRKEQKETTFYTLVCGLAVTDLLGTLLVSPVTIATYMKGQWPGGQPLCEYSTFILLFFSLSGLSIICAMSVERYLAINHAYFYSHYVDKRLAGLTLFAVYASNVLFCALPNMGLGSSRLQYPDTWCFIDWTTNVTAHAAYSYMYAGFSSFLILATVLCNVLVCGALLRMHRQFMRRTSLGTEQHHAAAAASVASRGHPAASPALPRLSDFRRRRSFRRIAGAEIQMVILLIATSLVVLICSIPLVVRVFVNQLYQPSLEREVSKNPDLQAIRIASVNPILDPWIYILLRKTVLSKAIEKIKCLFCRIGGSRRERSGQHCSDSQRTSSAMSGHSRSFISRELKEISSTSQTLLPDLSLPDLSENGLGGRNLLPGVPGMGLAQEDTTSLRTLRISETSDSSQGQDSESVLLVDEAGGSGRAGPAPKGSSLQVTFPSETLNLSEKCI
EP3R, sequence (P43115 whole entry): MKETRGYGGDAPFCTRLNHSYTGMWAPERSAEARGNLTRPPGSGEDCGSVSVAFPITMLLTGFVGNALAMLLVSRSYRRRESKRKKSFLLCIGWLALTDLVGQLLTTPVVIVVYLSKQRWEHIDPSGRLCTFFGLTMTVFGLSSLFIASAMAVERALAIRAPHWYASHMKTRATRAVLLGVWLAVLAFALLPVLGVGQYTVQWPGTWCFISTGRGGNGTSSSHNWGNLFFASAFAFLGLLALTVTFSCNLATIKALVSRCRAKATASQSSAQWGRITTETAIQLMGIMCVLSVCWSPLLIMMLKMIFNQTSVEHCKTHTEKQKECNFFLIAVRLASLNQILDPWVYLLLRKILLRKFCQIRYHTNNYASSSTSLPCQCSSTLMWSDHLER

For `O=C(O)C1CCC2(CC1)CC(Nc1ncnc3[nH]c4c(F)cccc4c13)C2` (stereo not shown) [Compound 74, OC(=O)C1CCC2(CC(C2)NC=3N=CN=C4NC=5C(F)=CC=CC5C34)CC1], the IC50 ([1]; PRESTO-Tango IC50 (nM)) was 302 nM, the Ki ([1]; calculated using the Cheng Prusoff equation, read-out: PRESTO-Tango Ki*) was 60.4 nM and the “binding to EP3 receptor” value [2] was “no binding”. The “brain and cerebral spinal fluid exposure” value ([3]; 10 mg/kg i.p.) was “only marginal brain and cerebral spinal fluid exposure”, the concentration at 5 min ([3]; male, CD-1, mouse, CSF, ip, CSF, 5 min, mean, read-out: CSF concentrations of cmpd 7827_0016 in mice following IP (10 mg/kg) administration, C) was 15.7 ng/mL and the concentration at 15 min ([3]; male, CD-1, mouse, CSF, ip, CSF, 15 min, mean, read-out: CSF concentrations of cmpd 7827_0016 in mice following IP (10 mg/kg) administration, C) was 70.5 ng/mL. The concentration at 30 min ([3]; male, CD-1, mouse, CSF, ip, CSF, 30 min, mean, read-out: CSF concentrations of cmpd 7827_0016 in mice following IP (10 mg/kg) administration, C) was 80.6 ng/mL, the concentration at 60 min [3, 4] was 158 ng/mL and the concentration at 120 min [3, 4] was 119 ng/mL. It also gave a concentration at 240 min [3, 4] of 26 ng/mL, a concentration at 360 min ([3]; male, CD-1, mouse, CSF, ip, CSF, individual animals, read-out: CSF concentration, Final) of 98.6 ng/mL and a concentration at 360 min [3, 4] of 80.9 ng/mL. For the same compound, the concentration at 480 min [3, 4] was 7.31 ng/mL, the concentration at 1440 min [3, 4] was 10.8 ng/mL and the concentration at 5 min ([3]; male, CD-1, mouse, brain, ip, brain, 5 min, individual animals, read-out: Brain concentration, Final) was 58.9 ng/g. It also gave a concentration at 5 min ([3]; male, CD-1, mouse, brain, ip, brain, 5 min, mean, read-out: Brain concentrations of cmpd 7827_0016 in mice following IP (10 mg/kg) administration, C) of 61.1 ng/g, a concentration at 15 min ([3]; male, CD-1, mouse, brain, ip, brain, 15 min, individual animals, read-out: Brain concentration, Final) of 152 ng/g and a concentration at 15 min ([3]; male, CD-1, mouse, brain, ip, brain, 15 min, mean, read-out: Brain concentrations of cmpd 7827_0016 in mice following IP (10 mg/kg) administration, C) of 135 ng/g. It also gave a concentration at 30 min ([3]; male, CD-1, mouse, brain, ip, brain, 30 min, individual animals, read-out: Brain concentration, Final) of 150 ng/g, a concentration at 30 min ([3]; male, CD-1, mouse, brain, ip, brain, 30 min, mean, read-out: Brain concentrations of cmpd 7827_0016 in mice following IP (10 mg/kg) administration, C) of 203 ng/g and a concentration at 60 min [3, 5] of 182 ng/g. For the same compound, the concentration at 60 min [3, 6] was 160 ng/g, the concentration at 120 min [3, 6] was 82.1 ng/g and the concentration at 240 min [3, 5] was 21.6 ng/g. It also gave a concentration at 240 min [3, 6] of 24.7 ng/g, a concentration at 360 min [3, 5] of 20.8 ng/g and a concentration at 360 min [3, 6] of 24.3 ng/g. For the same compound, the concentration at 480 min [3, 6] was 26.7 ng/g, the concentration at 1440 min [3, 5] was 0 ng/g and the concentration at 1440 min [3, 6] was 0 ng/g. The concentration at 5 min ([3]; male, CD-1, mouse, plasma, ip, plasma, 5 min, individual animals, read-out: Plasma concentration, Final) was 1340 ng/mL, the concentration at 5 min ([3]; male, CD-1, mouse, plasma, ip, plasma, 5 min, mean, read-out: Plasma concentrations of cmpd 7827_0016 in mice following IP (10 mg/kg) administration, C) was 1150 ng/mL and the concentration at 15 min ([3]; male, CD-1, mouse, plasma, ip, plasma, 15 min, individual animals, read-out: Plasma concentration, Final) was 3720 ng/mL. The concentration at 15 min ([3]; male, CD-1, mouse, plasma, ip, plasma, 15 min, mean, read-out: Plasma concentrations of cmpd 7827_0016 in mice following IP (10 mg/kg) administration, C) was 4580 ng/mL, the concentration at 30 min ([3]; male, CD-1, mouse, plasma, ip, plasma, 30 min, individual animals, read-out: Plasma concentration, Final) was 4610 ng/mL and the concentration at 30 min ([3]; male, CD-1, mouse, plasma, ip, plasma, 30 min, mean, read-out: Plasma concentrations of cmpd 7827_0016 in mice following IP (10 mg/kg) administration, C) was 6390 ng/mL. For the same compound, the concentration at 60 min [3, 7] was 6620 ng/mL, the concentration at 60 min [3, 8] was 6670 ng/mL and the concentration at 120 min [3, 8] was 3050 ng/mL. It also gave a concentration at 240 min [3, 8] of 1220 ng/mL, a concentration at 360 min [3, 7] of 1220 ng/mL and a concentration at 360 min [3, 8] of 1110 ng/mL. It also gave a concentration at 480 min [3, 8] of 1230 ng/mL, a concentration at 1440 min [3, 8] of 83.4 ng/mL and a Cmax ([3]; male, CD-1, mouse, plasma, ip, 10 mg/kg i.p.) of 6670 ng/mL. For the same compound, the AUC ([3]; male, CD-1, mouse, plasma, ip, 10 mg/kg i.p., read-out: plasma AUC (converted)) was 24200 ng·h/mL, the “CSF concentration, Final” value ([3]; CSF, 5 min, individual animals) was 0 ng/mL and 47.1 ng/mL and the “CSF concentration, Final” value ([3]; CSF, 15 min, individual animals) was 76.0 ng/mL and 109 ng/mL and 26.8 ng/mL. For the same compound, the “CSF concentration, Final” value ([3]; CSF, 30 min, individual animals) was 63.1 ng/mL and 31.1 ng/mL and 148 ng/mL.
